Patent publication US4089966A, “5-N-(3-Amino-2-hydroxy-propyl)-amino-1,2,4-oxadiazole derivatives, processes for their preparation and applications thereof” (Aron Sarl, priority 1975, dated 1978)
Where a name gives a salt, the structure may show the parent alone. Read-outs that look alike come from different tables or passages of the source.

Assays:
[1] = tested on: conduction anesthesia in guinea-pigs; test: Conduction anesthesia in guinea-pigs compared to Xylocaine; assay type: in vivo; conditions: Xylocaine = 1
[2] = tested on: surface anesthesia in rabbits; test: Surface anesthesia in rabbits compared to Butacaine; assay type: in vivo; conditions: Butacaine = 1
[3] = tested on: BaCl2 -induced contraction of the duodenum; test: Antispasmodic activity compared to Papaverine (BaCl2-induced contraction of the duodenum); conditions: Papaverine = 1
[4] = Acute toxicity (LD 50%, semi-logarithmic technique of Lichfield and Wilcoxon); assay type: in vivo; conditions: for LD50: in vivo
From the text: Each value represents the LD 50% expressed as mg/kg, according to the semi-logarithmic technique disclosed by Lichfield and Wilcoxon.

[5] = tested on: arrhythmia induced by Strophantine alone; test: Preventive action on arrhythmia induced by perfusion of K-Strophantine alone; assay type: in vivo, guinea-pits; conditions: K-Strophantine 0.I5mg/ml, 0.5ml/mn, ±SD, control 2.45±0.22
Experimental: (§1) a. Two Examples are given to show the preventive action, by the intravenous route:
(§2) 1. in guinea-pits, on arrhythmia induced by Strophantine alone or in combination with adrenaline;
(§3) The various compounds of the above Table are administered just prior to
(§4) perfusion of the arrhythmogenic materials (K-Strophantine,
(§5) K-Strophantine-Adrenaline, Aconitine). The values represent the period of
(§6) time ± SD (standard deviation) before the first signs of arrhythmia

[6] = tested on: aconitine-induced rhythm disorders; test: Preventive action on aconitine-induced rhythm disorders; assay type: in vivo, rats; conditions: Aconitine 50mg/l, 0.2ml/mn, ±SD, control 85±15
Experimental: as §1
2. in rats, on aconitine-induced rhythm disorders.
as §3, §4, §5, §6

[7] = tested on: arrhythmia induced by Strophantine in combination with adrenaline; test: Preventive action on arrhythmia induced by perfusion of K-Strophantine in combination with adrenaline; assay type: in vivo, guinea-pits; conditions: K-Strophantine 0.I5mg/ml + Adrenaline 5μg/ml, ±SD, control 1.21±0.33
Experimental: as §1, §2, §3, §4, §5, §6

[8] = Chronic toxicity, oral, 3 months, young adult rats; assay type: in vivo, rats of Sprague Dawley (Charles River) strain; conditions: oral, 25, 75 and 150 mg/kg during 3 months
Experimental: The compound of Example 1 was administered orally to young adult rats of Sprague Dawley (Charles River) strain, at dosages of 25, 75 and 150 mg/kg during 3 months.

[9] = Chronic toxicity, intravenous, 1 month, young male adult mice; assay type: in vivo; conditions: 1 and 5 mg/kg during 1 month
Experimental: The compound of Example 1 was also administered intravenously to young male adult mice, at dosages of 1 and 5 mg/kg during 1 month.

[10] = tested on: disorders of the cardiac rhythm; test: Clinical tests, oral administration in patients suffering from disorders of the cardiac rhythm; assay type: in vivo; conditions: oral, 200, 400 and 600 mg
[11] = tested on: disorders of the cardiac rhythm in non-anesthetized dogs 24 hours after coronary ligation; test: Curative activity on disorders of the cardiac rhythm 24 hours after coronary ligation (method according to Harris); assay type: in vivo; conditions: for Percent sinus rhythm after administration of the compound: extreme values in parenthesis
From the text: b. An Example is given to show the curative activity by the oral route.
As is apparent from following Table IV, the effect is a function of the disage administered.

[12] = oral route, read-out: LD50, oral route
[13] = intravenous route, read-out: LD50, intravenous route

Row | SMILES | Ratio between the activity of compound (I) and the activity of Xylocaine for conduction anesthesia, on administration of a same dosage [1] | Ratio between the activity of compound (I) and the activity of Butacaine for surface anesthesia, on administration of a same dosage [2] | Ratio between the dosage of Papaverine and the dosage of Compound (1) producing the same antispasmodic activity [3] | LD50 [4, 12] [mg/kg] | LD50 [4, 13] [mg/kg] | other results
1 | CCNCC(O)CN(CC)c1nc(-c2ccccc2)no1 (stereo not drawn) [Example 12] | 1.65 | 1 | 0.8 |  |  | 
2 | CCN(CC)CC(O)CNc1nc(-c2ccc(F)cc2)no1 (stereo not drawn) [Example 4, 5-(3-diethylamino-2-hydroxy-propyl)-amino-3-(4-fluorophenyl)-1,2,4-oxadiazole fumarate] | 1.5 | 1.4 |  | 750 |  | 
3 | CCN(CC)CC(O)CNc1nc(-c2ccccc2)no1 (stereo not drawn) [Example 2] | 1.4 | 1 | 1 | 700 | 55 | period of time before the first signs of arrhythmia appear ([5]; 10 mg/kg intravenous): 3.04±0.52 decimal minutes; period of time before the first signs of arrhythmia appear ([6]; 10 mg/kg intravenous): 155 ± 32 s; period of time before the first signs of arrhythmia appear ([7]; 10 mg/kg intravenous): 2.73±0.5 decimal minutes
4 | CCN(CC)CC(O)CN(C)c1nc(-c2ccccc2)no1 (stereo not drawn) [Example 1, 5-N-(3-diethylamino-2-hydroxy-propyl)-N-methylamino-3-phenyl-1,2,4-oxadiazole fumarate hydrate] | 1 | 1.5 | 1.5 | 280 | 30 | change of weight of the organs on autopsy [8]: No change of weight of the organs was found; hematologic examination, biochemical blood tests and urinalysis [8]: No anomaly was detected; histological anomaly on anatomicopathological examination [8]: No histological anomaly, and particularly no liver, kidney or brain injury was found; glycemia and serum transaminase level [9]: comparable in the treated animals and in the control animals; hematological examination [9]: No substantial modifications were found; histological anomaly on autopsy [9]: No histological anomaly was found on autopsy, particularly no cytologic injury of the liver, the kidneys, the pancreas, the heart or the brain; local tolerance of the injections [9]: well tolerated locally; period of time before the first signs of arrhythmia appear ([5]; 5 mg/kg intravenous): 3.27±0.4 decimal minutes; period of time before the first signs of arrhythmia appear ([5]; 10 mg/kg intravenous): 3.18±0.33 decimal minutes; effects in patients suffering from disorders of the cardiac rhythm [10]: beneficial effects; Tolerance ([10]; patients): good; Percent sinus rhythm after administration of the compound ([11]; 10 mg/kg oral, 3 tests, prior to administration 5%(0-15%)): 25%(0-65%); Percent sinus rhythm after administration of the compound ([11]; 25 mg/kg oral, 8 tests, prior to administration 5.6% (0-18%)): 59%(5-100%); Percent sinus rhythm after administration of the compound ([11]; 50 mg/kg oral, 6 tests, prior to administration 7.6% (0-20%)): 71.6% (25-100%); curative activity on disorders of the cardiac rhythm after coronary ligation (in words) ([11]; non-anesthetized dogs, oral route): corrects the disorders of the cardiac rhythm; period of time before the first signs of arrhythmia appear ([6]; 5 mg/kg intravenous): 141 ± 28 s; period of time before the first signs of arrhythmia appear ([6]; 10 mg/kg intravenous): 126 ± 23 s; period of time before the first signs of arrhythmia appear ([7]; 10 mg/kg intravenous): 1.62±0.42 decimal minutes
5 | CCCN(CCC)CC(O)CN(C)c1nc(-c2ccccc2)no1 (stereo not drawn) [Example 9, 5-N-(3-dipropylamino-2-hydroxy-propyl)-N-methylamino-3-phenyl-1,2,4-oxadiazole fumarate hydrate] | 1.6 | 1.65 | 4 | 250 | 50 | period of time before the first signs of arrhythmia appear ([7]; 2.5 mg/kg intravenous): 1.77±0.08 decimal minutes
6 | CCN(CC)CC(O)CN(CC)c1nc(-c2ccccc2)no1 (stereo not drawn) [Example 5] | 1.7 | 1.7 | 3 | 200 | 18 | period of time before the first signs of arrhythmia appear ([5]; 5 mg/kg intravenous): 3.43±0.51 decimal minutes; period of time before the first signs of arrhythmia appear ([6]; 5 mg/kg intravenous): 119 ± 15.5 s; period of time before the first signs of arrhythmia appear ([7]; 5 mg/kg intravenous): 1.60±0.35 decimal minutes
7 | CN1CCN(CC(O)CNc2nc(-c3ccccc3)no2)CC1 (stereo not drawn) [Example 10] |  |  |  | 750 |  | insoluble (entry in place of the intravenous LD50) ([4]; intravenous route): inso-
8 | CCN(CC)CC(O)CN(C)c1nc(-c2ccncc2)no1 (stereo not drawn) [Example 11] | 1 | 1.5 | 0.2 | 750 | 100 | period of time before the first signs of arrhythmia appear ([6]; 20 mg/kg intravenous): 129 ± 21 s; period of time before the first signs of arrhythmia appear ([7]; 10 mg/kg intravenous): 1.3±0.3 decimal minutes
9 | C=CCN(CC(O)CN(CC)CC)c1nc(-c2ccccc2)no1 (stereo not drawn) [Example 8] | 1 | 1.5 | 2.5 |  |  | 
10 | COc1ccc(Cc2nccc3cc(OC)c(OC)cc23)cc1OC [Papaverine, reference compound] |  |  | 1 |  |  | 
11 | CCCN(CC(O)CN(CC)CC)c1nc(-c2ccccc2)no1 (stereo not drawn) [Example 7, 5-[N-(3-diethylamino-2-hydroxy-propyl)-N-propyl]amino-3-phenyl-1,2,4-oxadiazole fumarate hydrate] |  |  |  | 250 |  | period of time before the first signs of arrhythmia appear ([5]; 2.5 mg/kg intravenous): 2.85±0.1 decimal minutes; insoluble (entry in place of the intravenous LD50) ([4]; intravenous route): inso-; period of time before the first signs of arrhythmia appear ([6]; 2.5 mg/kg intravenous): 185 ± 48 s; period of time before the first signs of arrhythmia appear ([7]; 2.5 mg/kg intravenous): 1.74±0.16 decimal minutes
